Results: ChEMBL document CHEMBL3763049, “Discovery of aminoquinazoline derivatives as human A(2A) adenosine receptor antagonists” (Bioorg Med Chem Lett, 2016)
Values after ≈ are worked out from the molar mass of the structure shown.

Legend:
Adenosine receptor A1 = target: T1, Adenosine receptor A1 (Homo sapiens, UniProt P30542); assay: Displacement of [3H]DPCPX from human adenosine A1 receptor expressed in CHO cell membranes after 60 mins by microplate scintillation counting analysis
T1 sequence (P30542 whole entry): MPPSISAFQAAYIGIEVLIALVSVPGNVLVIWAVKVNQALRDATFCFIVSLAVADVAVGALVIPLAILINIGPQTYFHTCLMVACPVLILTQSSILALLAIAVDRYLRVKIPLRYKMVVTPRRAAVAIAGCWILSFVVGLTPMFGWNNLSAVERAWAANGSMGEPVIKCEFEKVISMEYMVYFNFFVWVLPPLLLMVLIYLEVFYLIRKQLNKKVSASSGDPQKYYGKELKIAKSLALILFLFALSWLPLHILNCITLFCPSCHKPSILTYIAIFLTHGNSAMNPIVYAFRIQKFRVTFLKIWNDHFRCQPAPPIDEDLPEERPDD

Rattus norvegicus [1] = assay: Anti-cataleptic activity in Sprague-Dawley rat assessed as inhibition of haloperidol-induced catalepsy at 30 mg/kg, po administered for 1 hr; assay type: functional
Adenosine receptor A2a [2] = target: Adenosine receptor A2a (Rattus norvegicus, UniProt P30543); assay: Binding affinity to rat A2A adenosine receptor
Adenosine receptor A2a [3] = target: Adenosine receptor A2a (Homo sapiens, UniProt P29274); assay: Displacement of [3H]SCH-58261 from human adenosine A2A receptor expressed in HEK cell membranes after 60 mins by microplate scintillation counting analysis; design: species or system HEK293
Rattus norvegicus [4] = assay: Anti-cataleptic activity in Sprague-Dawley rat assessed as inhibition of haloperidol-induced catalepsy at 10 mg/kg, po administered for 1 hr; assay type: functional
[5] = AUC in haloperidol-induced Sprague-Dawley rat cataleptic model at 10 mg/kg, po administered for 1 hr; assay type: ADME, organism-based; conditions: in vivo
[6] = AUC in haloperidol-induced Sprague-Dawley rat cataleptic model at 30 mg/kg, po administered for 1 hr; assay type: ADME, organism-based; conditions: in vivo
Cytochrome P450 3A4 [7] = target: T2, Cytochrome P450 3A4 (Homo sapiens, UniProt P08684); assay: Time dependent inhibition of CYP3A4 (unknown origin); assay type: ADME
Rattus norvegicus [8] = assay: Anti-cataleptic activity in Sprague-Dawley rat assessed as inhibition of haloperidol-induced catalepsy at 1 mg/kg, po administered for 1 hr; assay type: functional
[9] = Solubility of compound at pH 7; assay type: physicochemical; conditions: buffer
[10] = Clearance in rat hepatocytes assessed per million cells; assay type: ADME, cell-based, Hepatocyte; conditions: read-out: CLH
Cytochrome P450 3A4 [11] = target: T2, Cytochrome P450 3A4; assay: Time dependent inhibition of CYP3A4 (unknown origin) at 30 uM relative to control; assay type: ADME
[12] = Permeability of the compound; assay type: ADME; conditions: not told; read-out: permeability
[13] = Plasma concentration in haloperidol-induced Sprague-Dawley rat cataleptic model after 1 hr; assay type: ADME
[14] = Plasma protein binding in human; assay type: ADME, cell-free; conditions: read-out: PPB (converted)
[15] = Half life in haloperidol-induced Sprague-Dawley rat cataleptic model at 1 to 30 mg/kg, po administered for 1 to 4 hrs; assay type: ADME, organism-based; conditions: in vivo
Adenosine receptor A2b = target: T3, Adenosine receptor A2b (Homo sapiens, UniProt P29275); assay: Binding affinity to human adenosine A2B receptor
T3 sequence (P29275 whole entry): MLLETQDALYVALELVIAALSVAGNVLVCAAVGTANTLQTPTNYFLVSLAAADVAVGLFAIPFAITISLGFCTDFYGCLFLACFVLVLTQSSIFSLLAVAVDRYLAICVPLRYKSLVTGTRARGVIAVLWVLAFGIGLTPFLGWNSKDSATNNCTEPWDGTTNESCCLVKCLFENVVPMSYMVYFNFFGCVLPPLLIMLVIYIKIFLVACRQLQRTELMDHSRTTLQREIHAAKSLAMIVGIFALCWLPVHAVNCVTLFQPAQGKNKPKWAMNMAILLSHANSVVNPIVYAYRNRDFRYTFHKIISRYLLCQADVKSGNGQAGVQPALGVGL

[16] = Drug uptake in brain of haloperidol-induced Sprague-Dawley rat cataleptic model after 1 hr; assay type: ADME, tissue-based; conditions: read-out: Drug uptake
[17] = Plasma protein binding in rat; assay type: ADME, cell-free; conditions: read-out: PPB (converted)
Adenosine receptor A3 = target: T4, Adenosine receptor A3 (Homo sapiens, UniProt P0DMS8); assay: Binding affinity to human adenosine A3 receptor
T4 sequence (P0DMS8 whole entry): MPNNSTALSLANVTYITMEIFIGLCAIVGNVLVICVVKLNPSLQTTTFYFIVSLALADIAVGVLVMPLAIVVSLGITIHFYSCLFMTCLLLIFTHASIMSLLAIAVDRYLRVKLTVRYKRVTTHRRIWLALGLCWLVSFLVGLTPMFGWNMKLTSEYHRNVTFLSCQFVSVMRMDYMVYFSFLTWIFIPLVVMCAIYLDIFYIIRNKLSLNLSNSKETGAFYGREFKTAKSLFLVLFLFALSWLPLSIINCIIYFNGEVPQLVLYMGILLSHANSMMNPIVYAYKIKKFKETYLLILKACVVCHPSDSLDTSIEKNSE

[18] = Clearance in human hepatocytes assessed per million cells; assay type: ADME, cell-based, Hepatocyte; conditions: read-out: CLH

Adenosine receptor A2a (Rattus norvegicus, UniProt P30543), sequence (P30543 whole entry): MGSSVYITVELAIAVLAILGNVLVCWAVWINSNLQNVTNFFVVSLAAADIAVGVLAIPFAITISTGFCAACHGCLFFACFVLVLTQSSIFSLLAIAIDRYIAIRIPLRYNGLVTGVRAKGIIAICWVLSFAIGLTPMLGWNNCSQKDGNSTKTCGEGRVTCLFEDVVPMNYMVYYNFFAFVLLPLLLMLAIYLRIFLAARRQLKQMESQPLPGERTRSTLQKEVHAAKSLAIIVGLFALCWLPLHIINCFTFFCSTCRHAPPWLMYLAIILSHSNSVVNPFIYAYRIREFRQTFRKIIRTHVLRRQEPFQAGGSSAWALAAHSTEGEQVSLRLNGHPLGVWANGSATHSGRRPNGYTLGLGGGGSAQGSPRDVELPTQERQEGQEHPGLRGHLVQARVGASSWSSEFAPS
Adenosine receptor A2a (Homo sapiens, UniProt P29274), sequence (P29274 whole entry): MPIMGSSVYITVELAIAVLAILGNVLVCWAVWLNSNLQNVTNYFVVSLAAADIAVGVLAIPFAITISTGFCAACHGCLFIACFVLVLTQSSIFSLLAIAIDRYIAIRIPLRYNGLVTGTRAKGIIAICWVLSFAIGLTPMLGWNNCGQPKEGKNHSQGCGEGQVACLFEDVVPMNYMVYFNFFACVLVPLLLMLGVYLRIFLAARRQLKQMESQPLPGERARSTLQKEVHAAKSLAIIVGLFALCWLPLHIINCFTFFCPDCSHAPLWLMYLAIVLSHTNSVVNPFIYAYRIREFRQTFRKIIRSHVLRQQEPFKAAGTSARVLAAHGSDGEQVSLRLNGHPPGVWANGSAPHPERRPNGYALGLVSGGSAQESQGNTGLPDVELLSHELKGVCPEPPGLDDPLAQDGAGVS
T2 sequence (P08684 whole entry): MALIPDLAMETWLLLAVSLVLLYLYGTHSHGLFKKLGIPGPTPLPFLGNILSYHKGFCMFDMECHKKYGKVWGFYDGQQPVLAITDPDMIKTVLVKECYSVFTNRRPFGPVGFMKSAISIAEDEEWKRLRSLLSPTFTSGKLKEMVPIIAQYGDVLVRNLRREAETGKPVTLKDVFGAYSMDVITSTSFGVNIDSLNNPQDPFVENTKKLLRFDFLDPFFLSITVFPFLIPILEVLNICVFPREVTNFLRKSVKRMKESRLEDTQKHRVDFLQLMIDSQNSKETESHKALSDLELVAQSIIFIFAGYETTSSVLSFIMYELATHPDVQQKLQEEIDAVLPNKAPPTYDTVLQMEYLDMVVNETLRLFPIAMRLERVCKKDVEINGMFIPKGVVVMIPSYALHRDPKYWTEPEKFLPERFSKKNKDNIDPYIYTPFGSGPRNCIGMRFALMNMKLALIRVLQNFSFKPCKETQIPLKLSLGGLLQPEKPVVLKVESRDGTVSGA

| SMILES | Ki (Adenosine receptor A1) [nM] | Ki (Adenosine receptor A2a [3]) [nM] | other results |
| --- | --- | --- | --- |
| Nc1nc(C(=O)NCc2cccc3cccnc23)c2cccc(C(F)(F)F)c2n1 | 1300 | – | inhibition in vivo at 30 mg/kg (Rattus norvegicus [1]): 0%; Ki (Adenosine receptor A2a [2]; read-out: Ki): 57 nM |
| Cc1cccc(CNC(=O)c2nc(N)nc3c(F)cccc23)c1 | 112 | 8.4 | – |
| Nc1nc(C(=O)NCc2cccc3c2OCCN3)c2cccc(F)c2n1 | 135 | 21.5 | – |
| N#Cc1cccc2c(C(=O)NCc3cccc4cccnc34)nc(N)nc12 | 337 | 24 | – |
| C[C@H](NC(=O)c1nc(N)nc2c(F)cccc12)c1cccc2cccnc12 | 524 | 126 | – |
| Nc1nc(C(=O)NCc2cccc3cccnc23)c2ccc(F)cc2n1 | 31 | 0.3 | inhibition in vivo at 10 mg/kg (Rattus norvegicus [4]): 39%; AUC at 1 h [5]: 2.3 µM·h; Ki (Adenosine receptor A2a [2]; read-out: Ki): 4.8 nM |
| C[C@@H](NC(=O)c1nc(N)nc2c(F)cccc12)c1cccc2cccnc12 | 57 | – | – |
| Nc1nc(C(=O)NCc2cccc3c(C(=O)N4CCN(c5ccccc5)CC4)ccnc23)c2cccc(F)c2n1 | 6000 | 1540 | – |
| Nc1nc(C(=O)NCc2cccc3cccnc23)c2cccc(Br)c2n1 | 10 | – | – |
| Nc1nc(C(=O)NCc2cccc3c2OCCO3)c2cccc(F)c2n1 | 103 | 20 | – |
| CS(=O)(=O)c1cccc2c(C(=O)NCc3cccc4cccnc34)nc(N)nc12 | 4740 | – | Ki (Adenosine receptor A2a [2]; read-out: Ki): 302 nM |
| Nc1nc(C(=O)NCc2cncc3ccccc23)c2cccc(F)c2n1 | 78 | 26.7 | – |
| Nc1nc(C(=O)NCCc2ccccc2)c2cccc(F)c2n1 | 559 | 160 | – |
| Nc1nc(C(=O)NCc2cccc3cccnc23)c2cc(F)c(F)cc2n1 | 40 | 3.6 | – |
| Nc1nc(C(=O)NCc2cccc3cccnc23)c2cc(Cl)cc(Cl)c2n1 | 50 | 6.6 | – |
| Nc1nc(C(=O)NCc2cccc3[nH]cnc23)c2cccc(F)c2n1 | 281 | 25 | – |
| Nc1nc(C(=O)NCc2cccc3cccnc23)c2cc(F)ccc2n1 | 346 | 4.4 | inhibition in vivo at 10 mg/kg (Rattus norvegicus [4]): 55%; AUC at 1 h [5]: 0.8 µM·h; Ki (Adenosine receptor A2a [2]; read-out: Ki): 8.7 nM |
| Nc1nc(C(=O)NCc2cccc3c2NCCC3)c2cccc(F)c2n1 | 213 | 7.6 | – |
| Nc1nc(C(=O)NCc2ccc3ccccc3n2)c2cccc(F)c2n1 | 78 | 15 | – |
| Nc1nc(C(=O)NCc2ccccc2)c2cccc(F)c2n1 | 83 | 5.4 | – |
| CCn1cnc2c(CNC(=O)c3nc(N)nc4c(F)cccc34)cccc21 | 24 | 3.1 | – |
| Cc1ccccc1CNC(=O)c1nc(N)nc2c(F)cccc12 | 116 | 13.6 | – |
| Cn1nccc1-c1cccc2c(C(=O)NCc3cccc4cccnc34)nc(N)nc12 | 6040 | 1040 | – |
| Nc1nc(C(=O)NCc2cccc3cc[nH]c23)c2cccc(F)c2n1 | 54 | 8.2 | – |
| Nc1nc(C(=O)NCc2cccc3c2C(=O)NC3)c2cccc(F)c2n1 | 5.4 | 1.8 | – |
| Nc1nc(C(=O)NCc2cccc3cccnc23)c2cccc(OC(F)(F)F)c2n1 | 20 | – | inhibition in vivo at 30 mg/kg (Rattus norvegicus [1]): 0%; Ki (Adenosine receptor A2a [2]; read-out: Ki): 2.9 nM |
| Nc1cc(C(=O)NCc2cccc3cccnc23)c2ccccc2n1 | 17600 | 836 | solubility [9]: 19 µM (≈ 6.24 µg/mL) |
| Nc1nc(C(=O)NCC2CCCCC2)c2cccc(F)c2n1 | 170 | 45 | – |
| COc1cccc2c(C(=O)NCc3cccc4cccnc34)nc(N)nc12 | 6 | – | AUC at 1 h [6]: 0.8 µM·h; inhibition in vivo at 30 mg/kg (Rattus norvegicus [1]): 31%; Ki (Adenosine receptor A2a [2]; read-out: Ki): 0.6 nM |

Second part, led by results:

| Ki (Adenosine receptor A1) [nM] | Ki (Adenosine receptor A2a [3]) [nM] | SMILES | other results |
| --- | --- | --- | --- |
| 600 | 14 | Nc1nc(C(=O)NCCc2ccccn2)c2cccc(F)c2n1 | – |
| 69 | 15.2 | COc1ccnc2c(CNC(=O)c3nc(N)nc4c(F)cccc34)cccc12 | Ki (Adenosine receptor A2a [2]; read-out: Ki): 1.3 nM |
| 110 | 2.7 | Nc1nc(C(=O)NCc2cccc3cc(C(=O)N4CCN(c5ccccn5)CC4)cnc23)c2cccc(F)c2n1 | Ki (Adenosine receptor A2a [2]; read-out: Ki): 12.5 nM |
| 748 | 245 | CCCCOc1ccnc2c(CNC(=O)c3nc(N)nc4c(F)cccc34)cccc12 | Ki (Adenosine receptor A2a [2]): Not Active |
| 132 | – | CSc1cccc2c(C(=O)NCc3cccc4cccnc34)nc(N)nc12 | AUC at 1 h [6]: 8.9 µM·h; inhibition in vivo at 30 mg/kg (Rattus norvegicus [1]): 0%; Ki (Adenosine receptor A2a [2]; read-out: Ki): 12 nM |
| 210 | 12 | CN(CCCc1ccccn1)C(=O)c1cnc2c(CNC(=O)c3nc(N)nc4c(F)cccc34)cccc2c1 | – |
| 160 | 4.4 | Nc1nc(C(=O)NCc2cccc3cc(C(=O)N4CCCc5ccccc54)cnc23)c2cccc(F)c2n1 | – |
| 33 | 3.1 | Nc1nc(C(=O)NCc2cccc3cccnc23)c2cccc(I)c2n1 | inhibition in vivo at 10 mg/kg (Rattus norvegicus [4]): 23%; AUC at 1 h [5]: 1.3 µM·h |
| 12 | 0.5 | Nc1nc(C(=O)NCc2cccc3cccnc23)c2cccc(F)c2n1 | inhibition in vivo at 10 mg/kg (Rattus norvegicus [4]): 74%; TDI (Cytochrome P450 3A4 [7]): Not Active; inhibition in vivo at 1 mg/kg (Rattus norvegicus [8]): 30%; AUC at 1 h [5]: 2.4 µM·h; Ki (Adenosine receptor A2a [2]; read-out: Ki): 1.3 nM |
| 213 | – | Nc1nc(C(=O)NCc2cccc3cccnc23)c2cccc(Cl)c2n1 | inhibition in vivo at 30 mg/kg (Rattus norvegicus [1]): 35%; Ki (Adenosine receptor A2a [2]; read-out: Ki): 2.9 nM |
| 120 | 4.8 | COCCOc1ccc(N2CCN(C(=O)c3cnc4c(CNC(=O)c5nc(N)nc6c(F)cccc56)cccc4c3)CC2)cc1 | Ki (Adenosine receptor A2a [2]; read-out: Ki): 11.4 nM |
| 252 | 73.2 | CCOc1ccnc2c(CNC(=O)c3nc(N)nc4c(F)cccc34)cccc12 | – |
| 6300 | 160 | Nc1nc(C(=O)NCc2cccc3cccnc23)c2cccc(-c3cncnc3)c2n1 | – |
| 84 | 6.7 | Nc1nc(C(=O)NCc2nccc3ccccc23)c2cccc(F)c2n1 | – |
| 10000 | 927 | Nc1nc(C(=O)NCc2ccnc3ccccc23)c2cccc(F)c2n1 | – |
| 160 | 6.9 | Nc1nc(C(=O)NCc2cccc3cc(C(=O)NCCCCCc4ccccc4)cnc23)c2cccc(F)c2n1 | – |
| 90 | 10.1 | Nc1nc(C(=O)NCc2cccc3ccccc23)c2cccc(F)c2n1 | – |
| 90 | 1.1 | Nc1nc(C(=O)NCc2cccc3cccnc23)c2ccccc2n1 | inhibition in vivo at 10 mg/kg (Rattus norvegicus [4]): 35%; hepatocyte CLint [10]: 12.8 µL/min/1e6 cells; fold change (FC) (Cytochrome P450 3A4 [11]): 3; Papp [12]: 40 ×10⁻⁶ cm/s; concentration at 1 h [13]: 4.2 µM; fraction unbound [14]: 0.036; half-life [15]: 30 min; Ki (Adenosine receptor A2b): 1470 nM; solubility [9]: 124 µM (≈ 40.8 µg/mL); concentration at 1 h [16]: 3.1 µM; fraction unbound [17]: 0.045; Ki (Adenosine receptor A3): 985 nM; AUC at 1 h [5]: 1.6 µM·h; hepatocyte CLint [18]: 34.8 µL/min/1e6 cells; inhibition in vivo at 30 mg/kg (Rattus norvegicus [1]): 61%; Ki (Adenosine receptor A2a [2]; read-out: Ki): 11 nM |
